Source: patent US8518989B2, “Prodrugs of short-chain fatty acids and treatment methods” (Georgia Health Sciences University Research Institute, Inc., priority 2005, dated 2013)
Like-named read-outs stand apart in the source and are kept apart here.

Experiments:
[1] = target: T1, rat ATB^0,+ (Rattus norvegicus, UniProt Q334I2); assay: Substrate-induced inward currents in Xenopus oocytes expressing rat ATB0,+ (voltage clamp); type: cell-based; details: for Inward currents induced in ATB0,+-expressing oocytes (in words): 5 mM; for Inward currents induced in ATB0,+-expressing oocytes (in words) / K0.5 (substrate concentration for half-maximal current): voltage clamp; for K0.5 (substrate concentration for half-maximal current): ATB0,+-expressing oocytes
T1 sequence (Q334I2 1-640): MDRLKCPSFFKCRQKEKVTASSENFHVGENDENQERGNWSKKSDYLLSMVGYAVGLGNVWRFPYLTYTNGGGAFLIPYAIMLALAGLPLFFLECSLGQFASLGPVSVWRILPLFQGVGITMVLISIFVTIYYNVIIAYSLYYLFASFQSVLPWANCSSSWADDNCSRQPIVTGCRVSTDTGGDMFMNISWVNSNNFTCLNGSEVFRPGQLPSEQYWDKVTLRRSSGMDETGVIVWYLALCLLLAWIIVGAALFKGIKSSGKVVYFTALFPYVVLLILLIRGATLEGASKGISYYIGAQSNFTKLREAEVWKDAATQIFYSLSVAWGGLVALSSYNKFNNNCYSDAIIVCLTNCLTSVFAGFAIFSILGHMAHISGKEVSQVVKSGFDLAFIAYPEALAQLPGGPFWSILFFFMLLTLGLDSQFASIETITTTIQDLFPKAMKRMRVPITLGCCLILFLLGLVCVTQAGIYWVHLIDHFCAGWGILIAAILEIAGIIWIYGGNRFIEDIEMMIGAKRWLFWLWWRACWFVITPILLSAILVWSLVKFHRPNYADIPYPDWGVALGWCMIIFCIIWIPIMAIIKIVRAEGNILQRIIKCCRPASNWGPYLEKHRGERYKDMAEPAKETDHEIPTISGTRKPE
Experimental: Experiments with HRPE cells were repeated at least three times with three independent transfections and transport measurements made in duplicate in each experiment. Electrophysiological measurements of substrate-induced currents were repeated at least three times with separate oocytes. The data are presented as means±S.E.M. of these replicates. The kinetic parameters, Michaelis constant (Kt) and maximal velocity (Vmax) were calculated by fitting the ATB^0,+-specific transport data to the Michaelis-Menten equation describing a single saturable transport system. Na^+ and Cl^−-activation kinetics were analyzed by fitting the ATB^0,+-specific transport data to the Hill equation for the determination of K0.5 values for Na^+ and Cl^− (concentration of Na^+ and Cl^− necessary for half-maximal activation) and the Hill coefficient (nH; the number of Na^+ or Cl^− ions involved in the activation process). The kinetics parameters were first determined by non-linear regression methods and subsequently confirmed by linear regression methods using the commercially-available computer program SigmaPlot, version 6.0 (SPSS Inc., Chicago, Ill., US).
Therefore, it was necessary to determine whether or not the α-carboxyl esters of neutral amino acids are transportable substrates for ATB^0,+. For this purpose, we used the X. laevis oocyte expression system. Cloned rat ATB^0,+ was functionally expressed in oocytes by injection of corresponding cRNA, and the transport of substrates via the transporter was monitored by inward currents when the oocytes were exposed to putative substrates under voltage-clamp conditions.

[2] = target: T1, rat ATB^0,+; assay: Inhibition of ATB0,+-mediated 3H-glycine uptake in HRPE cells expressing cloned rat ATB0,+; type: cell-based; details: for Inhibition of ATB0,+-mediated glycine transport (in words): 5 mM

| SMILES | Inward currents induced in ATB0,+-expressing oocytes (in words) [1] | K0.5 (substrate concentration for half-maximal current) [1] [µM] | IC50 [2] [µM] | Kt of ATB0,+-mediated glycine transport in the presence of inhibitor ([2]; 5 mM inhibitor, HRPE cells) [µM] | Vmax of ATB0,+-mediated glycine transport in the presence of inhibitor ([2]; 5 mM inhibitor, HRPE cells) | Inhibition of ATB0,+-mediated glycine transport (in words) ([2]; HRPE cells) | inhibition at 5000 µM ([2]; 5 mM inhibitor, HRPE cells, read-out: Inhibition of ATB0,+-mediated glycine transport) [%] | IC50 ([2]; glycine 10 μM, HRPE cells, read-out: IC50 for inhibition of ATB0,+-mediated glycine transport) [µM] | Hill coefficient for Na+ ([1]; 2 mM substrate, Cl- 100 mM) | K0.5 for Na+ ([1]; 2 mM substrate, Cl- 100 mM) [mM] | Hill coefficient for Cl- ([1]; 2 mM substrate, Na+ 100 mM) | K0.5 for Cl- ([1]; 2 mM substrate, Na+ 100 mM) [mM] |
| --- | --- | --- | --- | --- | --- | --- | --- | --- | --- | --- | --- | --- |
| CCC(=O)OC[C@H](N)C(=O)O [O-propionyl-L-serine, O-Propionyl-L-Serine] | induced marked inward currents | 305 ± 31 | 332 ± 59 | 132 ± 37 | 61 ± 13 nmol/10^6 cells/30 minutes | inhibited glycine transport significantly |  |  |  |  |  |  |
| CC(=O)OC[C@H](N)C(=O)O [O-acetyl-L-serine] | induced marked inward currents | 369 ± 25 |  | 133 ± 36 | 46 ± 9 nmol/10^6 cells/30 minutes |  | ~90 | 423 ± 72 |  |  |  |  |
| N[C@@H](CO)C(=O)O [L-serine] | induced marked inward currents |  |  |  |  |  |  |  |  |  |  |  |
| CCCC(=O)OC[C@H](N)C(=O)O [O-butyryl-L-serine, O-Butyryl-L-serine] | induced marked inward currents |  | 118 ± 8 | 102 ± 17 | 47 ± 5 nmol/10^6 cells/30 minutes | inhibited glycine transport significantly |  |  | 1.74±0.23 | 5.02 ± 0.25 | 1.33±0.02 | 6.28 ± 0.33 |
